Test results from ChEMBL document CHEMBL3585342, “Exploring the isoform selectivity of TGX-221 related pyrido[1,2-a]pyrimidinone-based Class IA PI 3-kinase inhibitors: synthesis, biological evaluation and molecular modelling” (Bioorg Med Chem, 2015).

Legend:
[1] = target: T1, Phosphatidylinositol 4,5-bisphosphate 3-kinase catalytic subunit delta isoform (Homo sapiens, UniProt O00329); format: cell-based, Sf9
T1 sequence (O00329 whole entry): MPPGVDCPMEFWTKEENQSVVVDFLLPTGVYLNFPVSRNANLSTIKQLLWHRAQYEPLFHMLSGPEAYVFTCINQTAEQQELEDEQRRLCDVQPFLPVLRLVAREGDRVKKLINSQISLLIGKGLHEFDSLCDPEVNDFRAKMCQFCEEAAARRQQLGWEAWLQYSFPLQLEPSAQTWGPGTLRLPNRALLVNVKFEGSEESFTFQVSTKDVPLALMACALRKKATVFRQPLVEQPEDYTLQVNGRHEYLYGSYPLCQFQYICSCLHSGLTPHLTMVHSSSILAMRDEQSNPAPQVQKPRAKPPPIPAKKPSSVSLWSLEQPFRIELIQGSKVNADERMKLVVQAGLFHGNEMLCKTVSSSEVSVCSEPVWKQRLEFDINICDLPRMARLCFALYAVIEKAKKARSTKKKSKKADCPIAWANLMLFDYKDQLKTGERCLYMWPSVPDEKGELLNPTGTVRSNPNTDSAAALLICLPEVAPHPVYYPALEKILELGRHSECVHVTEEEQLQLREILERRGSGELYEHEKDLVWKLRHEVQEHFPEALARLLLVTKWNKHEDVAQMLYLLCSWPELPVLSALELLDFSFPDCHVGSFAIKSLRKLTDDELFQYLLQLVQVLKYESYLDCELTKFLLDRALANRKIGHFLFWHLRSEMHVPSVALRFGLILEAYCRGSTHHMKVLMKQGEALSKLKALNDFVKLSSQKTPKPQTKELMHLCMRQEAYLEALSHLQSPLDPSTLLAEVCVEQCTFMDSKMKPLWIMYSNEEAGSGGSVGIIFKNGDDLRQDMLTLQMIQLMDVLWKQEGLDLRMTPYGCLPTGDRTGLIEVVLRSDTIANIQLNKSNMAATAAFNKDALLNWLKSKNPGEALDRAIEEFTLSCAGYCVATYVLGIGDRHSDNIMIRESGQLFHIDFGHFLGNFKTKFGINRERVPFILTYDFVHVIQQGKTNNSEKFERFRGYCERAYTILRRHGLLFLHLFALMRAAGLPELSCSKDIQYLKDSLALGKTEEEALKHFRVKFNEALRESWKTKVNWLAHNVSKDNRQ
Description: Inhibition of N-terminal His-tagged human p110delta expressed in Sf9 cells co-expressing p85alpha regulatory subunit using phosphatidylinositol substrate and [gamma-33P]-ATP by basic thin layer chromatography technique based lipid kinase assay

[2] = target: Phosphatidylinositol 4,5-bisphosphate 3-kinase catalytic subunit beta isoform (Homo sapiens, UniProt P42338); format: cell-based, Sf9
Description: Inhibition of N-terminal His-tagged human p110beta expressed in Sf9 cells co-expressing p85alpha regulatory subunit using phosphatidylinositol substrate and [gamma-33P]-ATP by basic thin layer chromatography technique based lipid kinase assay

[3] = target: Phosphatidylinositol 4,5-bisphosphate 3-kinase catalytic subunit alpha isoform (Homo sapiens, UniProt P42336); format: cell-based, Sf9
Description: Inhibition of N-terminal His-tagged human p110alpha expressed in Sf9 cells co-expressing p85alpha regulatory subunit using phosphatidylinositol substrate and [gamma-33P]-ATP by basic thin layer chromatography technique based lipid kinase assay

[4] = Inhibition of cell proliferation of human NZB5 cells containing wild-type p110alpha gene incubated for 5 days by [3H]thymidine incorporation assay; format: functional, cell-based
[5] = Inhibition of cell proliferation of human NZOV9 cells containing wild-type p53 protein and p110alpha Y1021C mutant incubated for 5 days by [3H]thymidine incorporation assay; format: functional, cell-based

Sequence of Phosphatidylinositol 4,5-bisphosphate 3-kinase catalytic subunit alpha isoform (P42336 whole entry, canonical isoform): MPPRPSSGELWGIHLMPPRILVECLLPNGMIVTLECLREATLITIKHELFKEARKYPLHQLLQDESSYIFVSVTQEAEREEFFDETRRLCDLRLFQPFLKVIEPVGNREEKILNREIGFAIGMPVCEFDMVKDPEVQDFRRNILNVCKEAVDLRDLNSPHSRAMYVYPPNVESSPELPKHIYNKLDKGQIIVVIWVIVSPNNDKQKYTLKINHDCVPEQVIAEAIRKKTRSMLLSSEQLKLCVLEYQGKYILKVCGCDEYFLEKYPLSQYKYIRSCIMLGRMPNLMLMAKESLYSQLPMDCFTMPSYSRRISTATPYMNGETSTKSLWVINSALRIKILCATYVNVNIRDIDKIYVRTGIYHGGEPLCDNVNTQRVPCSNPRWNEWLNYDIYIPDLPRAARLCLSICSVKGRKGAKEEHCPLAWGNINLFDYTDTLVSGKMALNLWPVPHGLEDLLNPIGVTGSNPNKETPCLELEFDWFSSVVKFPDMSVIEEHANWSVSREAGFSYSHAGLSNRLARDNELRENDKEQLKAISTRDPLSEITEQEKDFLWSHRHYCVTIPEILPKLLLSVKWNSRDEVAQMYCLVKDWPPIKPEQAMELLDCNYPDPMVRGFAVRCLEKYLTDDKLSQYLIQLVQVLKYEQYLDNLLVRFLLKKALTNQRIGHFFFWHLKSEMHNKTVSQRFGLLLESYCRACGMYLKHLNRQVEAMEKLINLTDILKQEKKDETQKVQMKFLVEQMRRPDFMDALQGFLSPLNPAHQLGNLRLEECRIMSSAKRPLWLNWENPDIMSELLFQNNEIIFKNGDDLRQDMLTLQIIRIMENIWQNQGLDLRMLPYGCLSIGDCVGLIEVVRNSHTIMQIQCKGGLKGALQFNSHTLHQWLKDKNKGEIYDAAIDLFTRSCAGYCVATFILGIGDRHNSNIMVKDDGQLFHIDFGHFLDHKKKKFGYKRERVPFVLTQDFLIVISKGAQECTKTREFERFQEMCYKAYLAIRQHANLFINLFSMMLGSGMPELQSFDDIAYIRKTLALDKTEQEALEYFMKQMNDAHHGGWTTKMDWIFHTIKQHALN
Sequence of Phosphatidylinositol 4,5-bisphosphate 3-kinase catalytic subunit beta isoform (P42338 whole entry, canonical isoform): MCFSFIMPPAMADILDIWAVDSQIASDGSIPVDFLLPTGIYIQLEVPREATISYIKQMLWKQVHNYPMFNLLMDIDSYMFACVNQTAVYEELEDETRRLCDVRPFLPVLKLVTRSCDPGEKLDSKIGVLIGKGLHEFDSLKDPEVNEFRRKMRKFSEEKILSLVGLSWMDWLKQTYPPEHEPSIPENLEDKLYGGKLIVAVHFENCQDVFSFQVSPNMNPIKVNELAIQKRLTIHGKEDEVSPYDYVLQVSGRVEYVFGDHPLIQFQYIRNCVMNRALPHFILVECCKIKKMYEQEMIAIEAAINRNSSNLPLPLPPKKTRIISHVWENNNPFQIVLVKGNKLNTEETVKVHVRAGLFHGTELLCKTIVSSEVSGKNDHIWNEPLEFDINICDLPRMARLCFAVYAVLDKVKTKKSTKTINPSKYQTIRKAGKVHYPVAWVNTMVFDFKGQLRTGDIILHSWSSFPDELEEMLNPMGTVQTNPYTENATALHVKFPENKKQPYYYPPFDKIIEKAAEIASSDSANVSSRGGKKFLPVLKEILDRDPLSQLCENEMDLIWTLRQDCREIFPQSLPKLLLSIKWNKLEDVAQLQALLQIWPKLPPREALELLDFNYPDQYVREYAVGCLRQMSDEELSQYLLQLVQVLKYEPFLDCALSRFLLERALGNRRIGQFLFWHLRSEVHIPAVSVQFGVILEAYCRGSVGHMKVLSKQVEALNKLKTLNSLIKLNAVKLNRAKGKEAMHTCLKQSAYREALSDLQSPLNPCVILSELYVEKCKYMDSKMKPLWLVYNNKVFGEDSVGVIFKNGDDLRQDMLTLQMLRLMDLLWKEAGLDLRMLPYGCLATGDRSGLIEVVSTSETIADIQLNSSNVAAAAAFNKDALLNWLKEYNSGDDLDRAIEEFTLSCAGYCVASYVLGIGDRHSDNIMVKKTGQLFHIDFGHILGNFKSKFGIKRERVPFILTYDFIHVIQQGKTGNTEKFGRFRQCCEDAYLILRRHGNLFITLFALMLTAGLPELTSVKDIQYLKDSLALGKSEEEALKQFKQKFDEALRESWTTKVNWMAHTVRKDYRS

SMILES	IC50 [1]	IC50 [2]	IC50 [3]	IC50 [4]	IC50 [5]
Cc1cccc(CNc2cc(C)cn3c(=O)cc(N4CCOCC4)nc23)c1	0.2 µM	0.13 µM	0.4 µM	0.4 µM	1.3 µM
Cc1ccc(CNc2cc(C)cn3c(=O)cc(N4CCOCC4)nc23)cc1	0.64 µM	1.8 µM	0.9 µM	0.4 µM	> 20 µM
Cc1cc(NCc2ccccn2)c2nc(N3CCOCC3)cc(=O)n2c1	0.8 µM	0.42 µM	2 µM	2.4 µM	7 µM
Cc1cc(NCc2cccnc2)c2nc(N3CCOCC3)cc(=O)n2c1	0.45 µM	0.59 µM	> 10 µM	8.2 µM	7.9 µM
Cc1cc(NCc2ccncc2)c2nc(N3CCOCC3)cc(=O)n2c1	0.71 µM	4.2 µM	4.9 µM	14 µM	14 µM
Cc1cc(N[C@@H](C)c2ccccc2)c2nc(N3CCOCC3)cc(=O)n2c1	0.27 µM	0.21 µM	2.2 µM	0.7 µM	0.6 µM
Cc1cc(N[C@H](C)c2ccccc2)c2nc(N3CCOCC3)cc(=O)n2c1	0.8 µM	2.3 µM	2.7 µM	0.7 µM	0.8 µM
O=C(Nc1ccccc1)c1cccn2c(=O)cc(N3CCOCC3)nc12	0.15 µM	3.6 µM	0.49 µM	2 µM	7 µM
Cc1ccccc1NC(=O)c1cccn2c(=O)cc(N3CCOCC3)nc12	0.53 µM	1.5 µM	1.8 µM	> 20 µM	11 µM
Cc1cccc(NC(=O)c2cccn3c(=O)cc(N4CCOCC4)nc23)c1	0.3 µM	3.9 µM	0.85 µM	8 µM	2.8 µM
Cc1ccc(NC(=O)c2cccn3c(=O)cc(N4CCOCC4)nc23)cc1	0.14 µM	> 10 µM	1.2 µM	> 20 µM	> 20 µM
O=C(NCc1ccccn1)c1cccn2c(=O)cc(N3CCOCC3)nc12	> 10 µM	> 10 µM	4.8 µM	20 µM	> 20 µM
O=C(NCc1cccnc1)c1cccn2c(=O)cc(N3CCOCC3)nc12	> 10 µM	> 10 µM	6.5 µM	18 µM	> 20 µM
O=C(NCc1ccncc1)c1cccn2c(=O)cc(N3CCOCC3)nc12	> 10 µM	> 10 µM	6.4 µM	12 µM	> 20 µM
O=C(Nc1cccn2c(=O)cc(N3CCOCC3)nc12)c1ccccc1	0.22 µM	1.8 µM	0.51 µM	10 µM	2.5 µM
Cc1ccccc1C(=O)Nc1cccn2c(=O)cc(N3CCOCC3)nc12	0.27 µM	2.4 µM	0.81 µM	5.5 µM	0.8 µM
Cc1cccc(C(=O)Nc2cccn3c(=O)cc(N4CCOCC4)nc23)c1	0.47 µM	1.8 µM	0.57 µM	6 µM	0.8 µM
Cc1ccc(C(=O)Nc2cccn3c(=O)cc(N4CCOCC4)nc23)cc1	0.03 µM	1.9 µM	1.36 µM	0.9 µM	0.8 µM
O=c1cc(N2CCOCC2)nc2c(NS(=O)(=O)c3ccccc3)cccn12	1.7 µM	> 10 µM	> 10 µM	6 µM	0.5 µM
O=C(Nc1ccccc1)Nc1cccn2c(=O)cc(N3CCOCC3)nc12	0.48 µM	0.63 µM	0.6 µM	7.2 µM	2.9 µM
O=C(Nc1cccn2c(=O)cc(N3CCOCC3)nc12)Oc1ccccc1	1.8 µM	9.1 µM	9 µM	7 µM	2.5 µM
Cc1cc(C(C)Nc2ccccc2)c2nc(N3CCOCC3)cc(=O)n2c1 (racemic)	0.14 µM	–	1 µM	2.8 µM	1.2 µM
Cc1cc(C(C)N(C)c2ccccc2)c2nc(N3CCOCC3)cc(=O)n2c1 (racemic)	0.22 µM	0.02 µM	1.5 µM	–	–
